PubChem BioAssay (NCI)
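Results reflect a 48-hour exposure of cells in 96-well plates to compound at five concentrations. At the GI50, growth is halved. At the TGI there is no net growth.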

system: MOLT-4 leukemia; test: inhibition of tumour cell growth, NCI panel, 48 h

`O=c1c2cc3c(=O)n(CCc4ccccc4CO)c(=O)c3cc2c(=O)n1CCc1ccccc1CO` and `CCc1cc(=O)n(/C(C)=C/c2ccccc2)n1C` cannot be ordered by TGI: > 100 µM for the first, > 100 µM for the second.

`Cc1cccc(NC(Nc2cccc(C)c2)=C(C(Cl)=C(Cl)Cl)[N+](=O)[O-])c1` and `C/C(=N\Nc1nc2ccccc2s1)c1cccnn1` cannot be ordered by TGI: > 20 µM for the first, > 100 µM for the second.

Compared with `COC(=O)C1=C(C(=O)OC)C2(C)CCC(=O)C1O2` (centres undefined), `COC(=O)[C@H]1C=C[C@H](OC2OC(COC(C)=O)C(OC(C)=O)C(OC(C)=O)C2OC(C)=O)n2c(=O)n(-c3ccccc3)c(=O)n21` (some centres undefined) is lower in TGI: > 10 µM for the first, 6.16 µM for the second.

`FC(F)=C(c1ccc(-c2ccc(Cl)cc2)cc1)C(F)(F)F` and `Nc1n[nH]c2ccccc12` cannot be ordered by TGI: > 100 µM for the first, > 100 µM for the second.

In the case of `N/C(CSCCSC/C(N)=N/O)=N\O`, the TGI is reported as > 100 µM.

system: SNB-78 CNS; test: inhibition of tumour cell growth, NCI panel, 48 h

`COc1cc(CCCOC2OC(COC3OCC(O)C(O)C3O)C(O)C(O)C2O)cc2cc(-c3ccc4c(c3)OCO4)oc12` (centres undefined) and `O=c1cc(-c2ccccc2F)[nH]c2cc3c(cc12)OCO3` cannot be ordered by TGI: > 175 µM for the first, > 100 µM for the second.

`c1ccc([P+](Cc2csnn2)(c2ccccc2)c2ccccc2)cc1` and `O=c1c2cc3c(=O)n(CCc4ccccc4CO)c(=O)c3cc2c(=O)n1CCc1ccccc1CO` cannot be ordered by TGI: > 100 µM for the first, > 100 µM for the second.

`O=C(NN1C(=O)CSC1c1ccc(Cl)c(Cl)c1)c1ccncc1` (centres undefined) and `CCOC(=O)C(C)NC(=O)N(C)C12CC3CC(CC(C3)C1)C2` (centres undefined) cannot be ordered by TGI: > 100 µM for the first, > 500 µM for the second.

system: PC-3 prostate; test: inhibition of tumour cell growth, NCI panel, 48 h

`COc1cc2nc(-c3c(F)cccc3F)n(Cc3c(F)cccc3F)c2cc1Cc1c(F)cccc1F` and `O=C(CN=C(CN(c1ccccc1)c1ccccc1)Oc1c(Cl)cc(Cl)cc1Cl)n1cnc2ccccc21` cannot be ordered by TGI: > 100 µM for the first, > 100 µM for the second.

Going from `O=C(/C=C1\C[C@H]2C=Nc3ccccc3C(=O)N2C1)NCCCCCNC(=O)/C=C1\C[C@H]2C=Nc3ccccc3C(=O)N2C1` to `O=C1NN=C(c2c[nH]c3ccccc23)CC1NCc1ccccc1` (centres undefined), the TGI rises from 27.1 µM to > 100 µM.

`COc1cc2c(cc1O)CC[n+]1cc3c(OC)c(OC)ccc3cc1-2` and `COc1ccc(CCCCl)c(C2=NCCc3ccccc32)c1` cannot be ordered by TGI: > 100 µM for the first, > 100 µM for the second.

First: CC[P+](C#Cc1ccccc1)(c1ccccc1)c1ccccc1
Second: O=c1oc2ccccc2c2nc3ccccc3cc12
The TGI of the first is lower: 6.53 µM for the first, > 100 µM for the second.

`CC(C)Cc1c(C#N)c(C#N)c(N)n1Cc1ccccc1` and `CCc1cc(=O)n(/C(C)=C/c2ccccc2)n1C` cannot be ordered by TGI: > 100 µM for the first, > 100 µM for the second.

Compared with `Nc1nc(Nc2ccc(OCc3cccc(F)c3)cc2)c2c(n1)[nH]c1ccc(O)cc12`, `O=c1cc(-c2ccccc2F)[nH]c2cc3c(cc12)OCO3` is higher in TGI: 14.7 µM for the first, > 100 µM for the second.

`CCCC[C@@H]1CCN2C[C@@H](O)[C@@H](O)[C@H]2[C@@H]1O` and `CCN(CC(=O)O)CC(=O)O` cannot be ordered by TGI: > 100 µM for the first, > 100 µM for the second.

`Clc1cccc(C2ON=C(c3ccccc3)N2C23CC4CC(CC(C4)C2)C3)c1Cl` (centres undefined) and `CNc1ccc2c(c1)Cc1ccccc1-2` cannot be ordered by TGI: > 10 µM for the first, > 100 µM for the second.

`CCOC(=O)c1csc(NC(=O)CCCC#N)n1` and `COC(=O)C1=C(C(=O)OC)C2(C)CCC(=O)C1O2` (centres undefined) cannot be ordered by TGI: > 100 µM for the first, > 10 µM for the second.

Compared with `CC(C)(C)c1ccc2c(c1)OCc1n[nH]c(n1)COc1cc(C(C)(C)C)ccc1OCCOCCO2`, `COC(=O)[C@H]1C=C[C@H](OC2OC(COC(C)=O)C(OC(C)=O)C(OC(C)=O)C2OC(C)=O)n2c(=O)n(-c3ccccc3)c(=O)n21` (some centres undefined) is 3-fold higher in TGI: 7.59 µM for the first, 22.6 µM for the second.

`CCNC(=S)N/N=C/c1ccccn1` and `Nc1n[nH]c2ccccc12` cannot be ordered by TGI: > 100 µM for the first, > 100 µM for the second.

`C=C1CC=CC(C)(C)C1C/C=C(\C)C(O)CBr` (centres undefined) and `Cc1cccc(NC(Nc2cccc(C)c2)=C(C(Cl)=C(Cl)Cl)[N+](=O)[O-])c1` cannot be ordered by TGI: > 100 µM for the first, > 92.9 µM for the second.

`O=C(O)c1cc2ccccc2c(S(=O)(=O)O)c1O` and `C/C(=N\Nc1nc2ccccc2s1)c1cccnn1` cannot be ordered by TGI: > 100 µM for the first, > 100 µM for the second.

Going from `FC(F)=C(c1ccc(-c2ccc(Cl)cc2)cc1)C(F)(F)F` to `N/C(CSCCSC/C(N)=N/O)=N\O`, the TGI rises from 32.5 µM to > 100 µM.

With `Nc1nc(Nc2ccc(OCc3cccc(F)c3)cc2)c2c(n1)[nH]c1ccc(O)cc12` the GI50 was 3.71 µM.

system: M19-MEL melanoma; test: inhibition of tumour cell growth, NCI panel, 48 h

`COc1cc(CCCOC2OC(COC3OCC(O)C(O)C3O)C(O)C(O)C2O)cc2cc(-c3ccc4c(c3)OCO4)oc12` (centres undefined) and `O=c1cc(-c2ccccc2F)[nH]c2cc3c(cc12)OCO3` cannot be ordered by TGI: > 175 µM for the first, > 100 µM for the second.

`c1ccc([P+](Cc2csnn2)(c2ccccc2)c2ccccc2)cc1` and `O=c1c2cc3c(=O)n(CCc4ccccc4CO)c(=O)c3cc2c(=O)n1CCc1ccccc1CO` cannot be ordered by TGI: > 100 µM for the first, > 100 µM for the second.

`CCC1(CC)C(=O)NC(=S)N=C1N` and `CCOC(=O)C(C)NC(=O)N(C)C12CC3CC(CC(C3)C1)C2` (centres undefined) cannot be ordered by TGI: > 100 µM for the first, > 452 µM for the second.

system: DMS 273 small cell lung; test: inhibition of tumour cell growth, NCI panel, 48 h

`CCOC(=O)C(NC(=O)c1ccc(N=NN(C)C)cc1)C(C)C` (centres undefined) and `CCOC(=O)C(C)NC(=O)N(C)C12CC3CC(CC(C3)C1)C2` (centres undefined) cannot be ordered by TGI: > 100 µM for the first, > 500 µM for the second.

`COc1cc(CCCOC2OC(COC3OCC(O)C(O)C3O)C(O)C(O)C2O)cc2cc(-c3ccc4c(c3)OCO4)oc12` (centres undefined) and `O=c1cc(-c2ccccc2F)[nH]c2cc3c(cc12)OCO3` cannot be ordered by TGI: > 175 µM for the first, > 100 µM for the second.

`c1ccc([P+](Cc2csnn2)(c2ccccc2)c2ccccc2)cc1` and `O=c1c2cc3c(=O)n(CCc4ccccc4CO)c(=O)c3cc2c(=O)n1CCc1ccccc1CO` cannot be ordered by TGI: > 100 µM for the first, > 100 µM for the second.

`CCC1(CC)C(=O)NC(=S)N=C1N` and `O=C(NN1C(=O)CSC1c1ccc(Cl)c(Cl)c1)c1ccncc1` (centres undefined) cannot be ordered by TGI: > 100 µM for the first, > 100 µM for the second.

system: K-562 leukemia; test: inhibition of tumour cell growth, NCI panel, 48 h

`CCOC(=O)C(NC(=O)c1ccc(N=NN(C)C)cc1)C(C)C` (centres undefined) and `CC(C)Cc1c(C#N)c(C#N)c(N)n1Cc1ccccc1` cannot be ordered by TGI: > 100 µM for the first, > 100 µM for the second.

`COc1cc(CCCOC2OC(COC3OCC(O)C(O)C3O)C(O)C(O)C2O)cc2cc(-c3ccc4c(c3)OCO4)oc12` (centres undefined) and `COc1cc2c(cc1O)CC[n+]1cc3c(OC)c(OC)ccc3cc1-2` cannot be ordered by TGI: > 175 µM for the first, > 100 µM for the second.

Compared with `COc1cc2nc(-c3c(F)cccc3F)n(Cc3c(F)cccc3F)c2cc1Cc1c(F)cccc1F`, `Nc1nc(Nc2ccc(OCc3cccc(F)c3)cc2)c2c(n1)[nH]c1ccc(O)cc12` is lower in TGI: > 100 µM for the first, 6.65 µM for the second.

`O=C(/C=C1\C[C@H]2C=Nc3ccccc3C(=O)N2C1)NCCCCCNC(=O)/C=C1\C[C@H]2C=Nc3ccccc3C(=O)N2C1` and `O=c1oc2ccccc2c2nc3ccccc3cc12` cannot be ordered by TGI: > 51.9 µM for the first, > 100 µM for the second.

Compared with `CC[P+](C#Cc1ccccc1)(c1ccccc1)c1ccccc1`, `CCC1(CC)C(=O)NC(=S)N=C1N` is higher in TGI: 0.74 µM for the first, > 100 µM for the second.

For `Nc1nc(Nc2ccc(OCc3cccc(F)c3)cc2)c2c(n1)[nH]c1ccc(O)cc12`, the GI50 was 2.66 µM.
